Tests used:
[1] = target: T1, Calcium/calmodulin-dependent protein kinase type IV (Homo sapiens) (UniProt Q16566); assay: Selectivity interaction (Millipore kinase profiler) EUB0000124b CAMK4; details: at 10 µM
T1 sequence (whole entry): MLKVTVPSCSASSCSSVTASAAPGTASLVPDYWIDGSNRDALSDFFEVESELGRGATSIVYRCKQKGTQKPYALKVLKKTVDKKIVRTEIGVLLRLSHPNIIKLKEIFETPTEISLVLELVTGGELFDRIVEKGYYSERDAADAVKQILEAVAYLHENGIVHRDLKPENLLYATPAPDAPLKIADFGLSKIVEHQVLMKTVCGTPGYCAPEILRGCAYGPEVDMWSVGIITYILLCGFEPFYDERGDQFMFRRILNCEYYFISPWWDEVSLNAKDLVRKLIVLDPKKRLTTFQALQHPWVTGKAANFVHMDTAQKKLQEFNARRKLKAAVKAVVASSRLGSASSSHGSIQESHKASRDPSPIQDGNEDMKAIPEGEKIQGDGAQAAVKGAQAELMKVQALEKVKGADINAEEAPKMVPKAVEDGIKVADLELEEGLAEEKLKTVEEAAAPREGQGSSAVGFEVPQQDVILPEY

[2] = target: Cyclin-dependent kinase 17 (Homo sapiens) (UniProt Q00537); assay: Selectivity interaction (KinomeScan (DiscoverX)) EUB0000229b CDK17; details: at 10 µM
[3] = target: Tyrosine-protein kinase JAK1 (Homo sapiens, UniProt P23458); assay: Selectivity interaction (Kinase panel (KiNativ target engagement assay in Jurkat cells)) EUB0001635a JAK1; type: cell-based; details: Selectivity number of off-targets 0.0, Selectivity number of targets 233.0, Source Knowledge https://www.sciencedirect.com/science/article/pii/S2451945619300674?via%3Dihub, at 1 µM
[4] = target: eIF-2-alpha kinase GCN2 (Homo sapiens) (UniProt Q9P2K8); assay: Selectivity interaction (ActivX KiNativ screen (kinase selectivity in THP-1 cell lysates)) EUB0000639a EIF2AK4; type: subcellular; details: lysate, at 5 µM
Chain of eIF-2-alpha kinase GCN2 (Homo sapiens) (Q9P2K8 whole entry): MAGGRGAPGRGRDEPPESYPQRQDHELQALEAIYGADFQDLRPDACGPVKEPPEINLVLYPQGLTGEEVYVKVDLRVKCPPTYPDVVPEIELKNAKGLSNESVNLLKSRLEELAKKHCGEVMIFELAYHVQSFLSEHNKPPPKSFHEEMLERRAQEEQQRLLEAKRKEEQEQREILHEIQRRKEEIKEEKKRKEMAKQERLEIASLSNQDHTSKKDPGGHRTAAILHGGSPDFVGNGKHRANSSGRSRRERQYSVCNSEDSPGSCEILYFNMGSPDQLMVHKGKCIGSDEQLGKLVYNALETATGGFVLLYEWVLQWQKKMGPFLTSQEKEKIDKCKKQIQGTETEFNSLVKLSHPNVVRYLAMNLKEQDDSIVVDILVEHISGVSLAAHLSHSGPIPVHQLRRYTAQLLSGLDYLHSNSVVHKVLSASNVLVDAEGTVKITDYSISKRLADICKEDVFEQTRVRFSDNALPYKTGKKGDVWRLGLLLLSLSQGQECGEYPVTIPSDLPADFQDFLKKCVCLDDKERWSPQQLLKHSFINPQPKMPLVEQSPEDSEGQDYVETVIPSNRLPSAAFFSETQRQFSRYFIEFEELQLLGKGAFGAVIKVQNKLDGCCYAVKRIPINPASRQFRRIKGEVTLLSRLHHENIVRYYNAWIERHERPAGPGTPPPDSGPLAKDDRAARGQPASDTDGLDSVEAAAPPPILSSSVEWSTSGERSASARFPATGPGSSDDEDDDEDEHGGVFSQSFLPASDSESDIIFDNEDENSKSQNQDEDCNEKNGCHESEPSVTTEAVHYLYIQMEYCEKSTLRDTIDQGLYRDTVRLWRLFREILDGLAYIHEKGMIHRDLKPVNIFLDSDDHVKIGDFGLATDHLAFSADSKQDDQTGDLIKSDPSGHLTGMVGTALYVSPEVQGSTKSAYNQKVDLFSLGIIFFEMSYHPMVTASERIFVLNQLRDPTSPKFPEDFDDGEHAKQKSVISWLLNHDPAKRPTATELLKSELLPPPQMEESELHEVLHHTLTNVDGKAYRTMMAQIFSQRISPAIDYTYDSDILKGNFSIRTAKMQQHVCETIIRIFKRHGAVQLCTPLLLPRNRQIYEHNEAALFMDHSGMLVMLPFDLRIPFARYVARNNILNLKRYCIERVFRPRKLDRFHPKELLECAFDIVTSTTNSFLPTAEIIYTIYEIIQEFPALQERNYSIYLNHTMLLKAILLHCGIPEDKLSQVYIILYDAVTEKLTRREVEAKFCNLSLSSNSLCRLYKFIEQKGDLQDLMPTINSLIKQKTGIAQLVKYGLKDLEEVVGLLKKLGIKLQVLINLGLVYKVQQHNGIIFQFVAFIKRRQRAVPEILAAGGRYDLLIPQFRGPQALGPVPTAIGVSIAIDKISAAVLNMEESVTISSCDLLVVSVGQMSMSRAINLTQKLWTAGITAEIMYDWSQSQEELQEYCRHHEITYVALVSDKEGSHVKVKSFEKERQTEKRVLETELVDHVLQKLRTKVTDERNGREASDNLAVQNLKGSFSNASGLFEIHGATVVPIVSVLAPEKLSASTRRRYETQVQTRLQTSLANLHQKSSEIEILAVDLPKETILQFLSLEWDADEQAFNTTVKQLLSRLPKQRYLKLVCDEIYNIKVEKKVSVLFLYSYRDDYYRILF

[5] = target: Tyrosine-protein kinase Fyn (Homo sapiens) (UniProt P06241); assay: Selectivity interaction (ActivX KiNativ screen (kinase selectivity in THP-1 cell lysates)) EUB0000639a FYN; type: subcellular; details: lysate, at 0.01 µM
Chain of Tyrosine-protein kinase Fyn (Homo sapiens) (P06241 2-537 limits assumed): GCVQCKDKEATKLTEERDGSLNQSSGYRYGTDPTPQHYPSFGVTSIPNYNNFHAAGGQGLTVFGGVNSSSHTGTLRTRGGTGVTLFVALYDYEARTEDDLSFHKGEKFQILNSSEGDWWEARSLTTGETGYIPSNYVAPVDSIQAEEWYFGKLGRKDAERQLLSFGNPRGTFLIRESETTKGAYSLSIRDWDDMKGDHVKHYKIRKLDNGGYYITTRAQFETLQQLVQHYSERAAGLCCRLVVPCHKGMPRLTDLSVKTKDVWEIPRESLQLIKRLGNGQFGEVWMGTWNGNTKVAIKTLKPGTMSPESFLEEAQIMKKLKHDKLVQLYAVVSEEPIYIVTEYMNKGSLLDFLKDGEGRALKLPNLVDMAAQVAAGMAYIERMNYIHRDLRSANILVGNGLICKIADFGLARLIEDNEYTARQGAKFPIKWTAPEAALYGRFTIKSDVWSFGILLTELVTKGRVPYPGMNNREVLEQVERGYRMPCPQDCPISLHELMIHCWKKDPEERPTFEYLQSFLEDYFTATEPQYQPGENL

[6] = target: Mitogen-activated protein kinase kinase kinase 10 (Homo sapiens) (UniProt Q02779); assay: Selectivity interaction (Kinase panel (Invitrogen)) EUB0000639a MAP3K10; details: at 200 nM
[7] = target: Vascular endothelial growth factor receptor 2 (Homo sapiens, UniProt P35968); assay: Selectivity interaction (KinomeScan (DiscoverX)) EUB0000092b KDR; details: at 10 µM
[8] = target: Leucine-rich repeat serine/threonine-protein kinase 2 (Homo sapiens, UniProt Q5S007); assay: (§1) Selectivity interaction (Ambit KINOMEscan and KiNATiv profiling in Jurkat cells) EUB0000090b LRRK2; type: cell-based; details: at 1 µM
Chain of Leucine-rich repeat serine/threonine-protein kinase 2 (Q5S007 whole entry): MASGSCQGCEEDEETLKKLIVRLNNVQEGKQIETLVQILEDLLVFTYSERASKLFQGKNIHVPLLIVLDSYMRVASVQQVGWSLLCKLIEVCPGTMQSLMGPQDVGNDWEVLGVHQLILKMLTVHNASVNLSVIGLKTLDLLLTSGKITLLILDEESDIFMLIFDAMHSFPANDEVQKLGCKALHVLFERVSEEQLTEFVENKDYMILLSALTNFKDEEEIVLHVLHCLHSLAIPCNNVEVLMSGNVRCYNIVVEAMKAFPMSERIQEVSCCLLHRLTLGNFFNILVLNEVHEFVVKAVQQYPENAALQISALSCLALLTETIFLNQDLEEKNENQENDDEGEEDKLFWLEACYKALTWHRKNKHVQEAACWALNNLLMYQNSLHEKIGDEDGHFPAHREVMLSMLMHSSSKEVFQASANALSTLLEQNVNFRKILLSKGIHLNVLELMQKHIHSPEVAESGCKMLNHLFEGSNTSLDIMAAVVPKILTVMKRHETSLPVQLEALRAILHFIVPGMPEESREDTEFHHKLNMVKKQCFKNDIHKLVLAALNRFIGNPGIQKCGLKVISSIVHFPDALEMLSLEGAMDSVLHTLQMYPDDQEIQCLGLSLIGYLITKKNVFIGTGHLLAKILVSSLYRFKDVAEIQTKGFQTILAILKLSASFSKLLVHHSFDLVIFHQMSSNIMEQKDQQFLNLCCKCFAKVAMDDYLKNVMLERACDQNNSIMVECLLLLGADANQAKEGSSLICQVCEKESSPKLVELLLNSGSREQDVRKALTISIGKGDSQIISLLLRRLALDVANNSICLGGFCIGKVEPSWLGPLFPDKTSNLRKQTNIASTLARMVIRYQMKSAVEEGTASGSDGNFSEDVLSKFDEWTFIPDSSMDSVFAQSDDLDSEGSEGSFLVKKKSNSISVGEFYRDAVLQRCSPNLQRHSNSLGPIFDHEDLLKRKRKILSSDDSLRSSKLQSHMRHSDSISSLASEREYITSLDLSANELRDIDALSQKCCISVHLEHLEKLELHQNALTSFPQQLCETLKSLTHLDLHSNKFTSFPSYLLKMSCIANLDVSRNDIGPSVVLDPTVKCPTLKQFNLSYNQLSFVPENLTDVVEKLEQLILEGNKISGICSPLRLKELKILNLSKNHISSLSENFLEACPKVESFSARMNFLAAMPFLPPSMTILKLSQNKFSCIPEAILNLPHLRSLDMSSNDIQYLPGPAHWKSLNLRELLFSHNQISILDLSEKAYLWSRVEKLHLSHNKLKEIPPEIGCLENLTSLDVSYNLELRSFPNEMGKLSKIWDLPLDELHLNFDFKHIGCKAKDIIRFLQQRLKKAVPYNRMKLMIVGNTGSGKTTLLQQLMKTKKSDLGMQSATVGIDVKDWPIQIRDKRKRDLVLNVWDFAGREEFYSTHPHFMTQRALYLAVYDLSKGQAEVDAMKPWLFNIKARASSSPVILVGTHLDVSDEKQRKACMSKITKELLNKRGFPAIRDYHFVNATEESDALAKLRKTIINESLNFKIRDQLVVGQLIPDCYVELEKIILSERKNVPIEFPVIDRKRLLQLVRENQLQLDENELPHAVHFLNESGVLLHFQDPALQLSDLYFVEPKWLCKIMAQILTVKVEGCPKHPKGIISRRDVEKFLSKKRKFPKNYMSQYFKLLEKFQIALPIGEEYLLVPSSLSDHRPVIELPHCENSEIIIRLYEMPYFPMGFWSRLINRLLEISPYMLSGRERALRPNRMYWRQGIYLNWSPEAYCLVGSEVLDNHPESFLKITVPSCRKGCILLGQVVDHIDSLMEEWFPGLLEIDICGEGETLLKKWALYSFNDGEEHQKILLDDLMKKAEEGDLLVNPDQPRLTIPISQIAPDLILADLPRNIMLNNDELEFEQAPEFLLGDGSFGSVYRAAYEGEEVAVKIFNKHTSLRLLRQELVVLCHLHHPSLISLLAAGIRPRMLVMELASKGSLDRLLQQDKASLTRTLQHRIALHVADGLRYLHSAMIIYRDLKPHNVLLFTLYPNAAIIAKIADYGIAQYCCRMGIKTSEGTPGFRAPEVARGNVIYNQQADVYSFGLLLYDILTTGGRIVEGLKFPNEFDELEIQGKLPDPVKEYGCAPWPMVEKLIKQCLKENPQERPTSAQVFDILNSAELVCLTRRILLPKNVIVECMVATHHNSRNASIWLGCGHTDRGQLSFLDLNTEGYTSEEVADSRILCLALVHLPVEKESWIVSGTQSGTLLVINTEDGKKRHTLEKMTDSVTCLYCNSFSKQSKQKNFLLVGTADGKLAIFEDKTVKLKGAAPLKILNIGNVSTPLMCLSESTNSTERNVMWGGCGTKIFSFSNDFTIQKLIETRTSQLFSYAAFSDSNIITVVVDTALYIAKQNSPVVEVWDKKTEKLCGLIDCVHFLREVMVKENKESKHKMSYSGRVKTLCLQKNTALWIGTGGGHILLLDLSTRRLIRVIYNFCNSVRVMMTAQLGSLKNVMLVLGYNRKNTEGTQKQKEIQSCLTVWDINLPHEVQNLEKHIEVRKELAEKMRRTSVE

[9] = test system: Leucine-rich repeat serine/threonine-protein kinase 2 (Homo sapiens), Q5S007 [G2019S]; assay: as §1; type: cell-based; details: at 1 µM
Chain of Leucine-rich repeat serine/threonine-protein kinase 2 (Homo sapiens), Q5S007 [G2019S] (Q5S007 whole entry G2019S): as the sequence (Q5S007 whole entry) above, with G2019S counted along it

[10] = target: Phosphatidylinositol 4-phosphate 5-kinase type-1 alpha (Homo sapiens) (UniProt Q99755); assay: Selectivity interaction (KinomeScan (DiscoverX)) EUB0000695a PIP5K1A; details: at 100 nM
[11] = target: T2, Inhibitor of nuclear factor kappa-B kinase subunit beta (Homo sapiens) (UniProt O14920); assay: Selectivity interaction (Kinase panel (Z-LYTE Assay)) EUB0001632a IKBKB; details: at 10 µM
T2 sequence (whole entry): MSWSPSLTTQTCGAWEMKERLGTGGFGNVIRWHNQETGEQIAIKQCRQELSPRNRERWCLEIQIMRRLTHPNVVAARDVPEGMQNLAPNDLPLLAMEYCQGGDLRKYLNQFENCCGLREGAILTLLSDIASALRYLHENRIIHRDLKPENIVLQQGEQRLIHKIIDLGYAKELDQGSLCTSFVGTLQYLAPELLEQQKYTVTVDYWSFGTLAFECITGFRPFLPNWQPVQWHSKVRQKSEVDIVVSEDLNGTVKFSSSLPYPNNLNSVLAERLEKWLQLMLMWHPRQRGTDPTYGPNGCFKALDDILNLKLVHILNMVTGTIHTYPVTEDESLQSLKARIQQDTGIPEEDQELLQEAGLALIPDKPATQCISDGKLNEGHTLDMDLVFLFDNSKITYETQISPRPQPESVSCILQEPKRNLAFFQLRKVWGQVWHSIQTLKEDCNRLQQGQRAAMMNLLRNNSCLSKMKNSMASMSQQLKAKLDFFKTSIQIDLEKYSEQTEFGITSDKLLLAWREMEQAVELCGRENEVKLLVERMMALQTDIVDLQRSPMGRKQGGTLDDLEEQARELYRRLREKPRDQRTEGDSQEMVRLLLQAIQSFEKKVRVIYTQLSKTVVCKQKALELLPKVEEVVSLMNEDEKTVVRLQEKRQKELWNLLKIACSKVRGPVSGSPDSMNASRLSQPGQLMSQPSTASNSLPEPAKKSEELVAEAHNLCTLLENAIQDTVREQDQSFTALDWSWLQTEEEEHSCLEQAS

[12] = target: cAMP-dependent protein kinase catalytic subunit alpha (Homo sapiens, UniProt P17612); assay: Selectivity interaction (ProQinase) EUB0000171b PRKACA

## CC(=O)Nc1cccc(-n2c(=O)n(C3CC3)c(=O)c3c(Nc4ccc(I)cc4F)n(C)c(=O)c(C)c32)c1
[1]
  % of control: 97%

## COc1cc(N(C)c2ccnc3ccc(C(F)(F)F)cc23)cc(OC)c1OC
[2]
  % binding: 88%

## C=CC(=O)Nc1ccc(C(=O)Nc2[nH]nc3c2CN(C(=O)N[C@H](CN(C)C)c2ccccc2)C3(C)C)cc1
[3]
  % of engagement: 3.6%

## CC[C@@H]1[C@H](F)C(=O)N[C@@H]1COc1nccc2cc(C(N)=O)c(OC)cc12 [ZIMLOVISERTIB]
[4]
  % of inhibition: 19.4%
[5]
  % of inhibition: -8.5%
[6]
  % of inhibition: -1.18%

## CCC(=O)N1CCN(c2ccc(-n3c(=O)ccc4cnc5ccc(-c6cnc7ccccc7c6)cc5c43)cc2C(F)(F)F)CC1
[7]
  % of control: 65%

## CN(C)C/C=C/C(=O)Nc1ccc(C(=O)N2CCCC(Nc3ncc(Cl)c(-c4c[nH]c5ccccc45)n3)C2)cc1 (stereo not drawn)
[8]
  % of control: 84%
[9]
  % of control: 92%

## Cc1cc(F)c(C(=O)Nc2cccc(-c3nncn3C(C)C)n2)cc1-n1cnc(C2CC2)c1
[10]
  % of control: 78%

## Cn1cc(-n2cnc3c(NCc4nc5cc(Cl)c(Cl)cc5[nH]4)nc(N4CCOCC4)nc32)cn1
[11]
  % of control: -3.93%

## C=CC(=O)Nc1cccc(C(=O)Nc2ccc(Nc3cc(-c4[nH]c(SC)nc4C)ccn3)cc2)c1
[12]; at 1 µM
  % of control: 84%
[12]; at 5 µM
  % of control: 66%
